Values quoted from earlier work, collected in patent US20230228656A1, “Functionalized Blood Sampling Device and Method for PEth Measurement” (CAPITAINER AB, priority 2020, published 2023).

System: PLD
Details: literature assessment; considered unsuitable for clinical use; cited from earlier work

## O=C(NCCN1CCC(n2c(=O)[nH]c3ccccc32)CC1)c1cc2cc(F)ccc2[nH]1 [FIPI, 5-fluoro-2-indolyl-deschlorohalopemide]
  potency as PLD inhibitor: low potency

## O=C(NCCN1CCC(n2c(=O)[nH]c3cc(Cl)ccc32)CC1)c1ccc(F)cc1 [halopemide]
  potency as PLD inhibitor: low potency
